Measurements: the NIST ThermoML archive (doi:10.1016/j.jct.2017.10.002)
Where “and” joins values, the source holds several entries; their conditions need not be identical. Equal entries are not always repeated.

Experiment: molar heat capacity at constant pressure
Settings: 101.33 kPa, relaxation calorimetry

CCc1ncc[n-]1.CCc1ncc[n-]1.[Zn+2] [zinc(II) 2-ethylimidazolide]
molar heat capacity at constant pressure
Settings | Crystal | Glass
5.457 K | – | 1.022 J/K/mol
5.583 K | 1.326 J/K/mol | –
5.686 K | 0.5523 J/K/mol | –
5.687 K | 1.228 J/K/mol | –
5.699 K | – | 1.17 J/K/mol
5.837 K | 1.479 J/K/mol | –
5.933 K | 1.341 J/K/mol | –
5.936 K | 0.614 J/K/mol | –
5.952 K | – | 1.278 J/K/mol
6 K | 1.585 J/K/mol and 0.6261 J/K/mol and 1.401 J/K/mol | 1.321 J/K/mol
6.1 K | 1.651 J/K/mol | –
6.189 K | 1.538 J/K/mol | –
6.195 K | 0.6531 J/K/mol | –
6.204 K | – | 1.457 J/K/mol
6.407 K | 1.86 J/K/mol | –
6.464 K | 0.7855 J/K/mol | –
6.465 K | 1.656 J/K/mol | –
6.479 K | – | 1.613 J/K/mol
6.685 K | 2.057 J/K/mol | –
6.752 K | 1.863 J/K/mol and 0.8975 J/K/mol | –
6.765 K | – | 1.809 J/K/mol
6.98 K | 2.277 J/K/mol | –
7 K | 2.294 J/K/mol and 0.9817 J/K/mol and 2.037 J/K/mol | 1.956 J/K/mol
7.049 K | 2.08 J/K/mol and 1.007 J/K/mol | –
7.062 K | – | 1.981 J/K/mol
7.296 K | 2.524 J/K/mol | –
7.357 K | 2.322 J/K/mol and 1.115 J/K/mol | –
7.372 K | – | 2.248 J/K/mol
7.627 K | 2.797 J/K/mol | –
7.681 K | 1.273 J/K/mol | –
7.686 K | 2.488 J/K/mol | –
7.698 K | – | 2.428 J/K/mol
7.976 K | 3.092 J/K/mol | –
8 K | 3.113 J/K/mol and 1.446 J/K/mol and 2.772 J/K/mol | 2.689 J/K/mol
8.016 K | 1.458 J/K/mol | –
8.018 K | 2.783 J/K/mol | –
8.034 K | – | 2.703 J/K/mol
8.339 K | 3.414 J/K/mol | –
8.366 K | 1.661 J/K/mol | –
8.367 K | 3.093 J/K/mol | –
8.389 K | – | 3.029 J/K/mol
8.718 K | 3.76 J/K/mol | –
8.733 K | 3.359 J/K/mol | –
8.737 K | 1.859 J/K/mol | –
8.753 K | – | 3.269 J/K/mol
9 K | 4.029 J/K/mol and 2.004 J/K/mol and 3.588 J/K/mol | 3.511 J/K/mol
9.115 K | 4.141 J/K/mol | –
9.117 K | 2.11 J/K/mol | –
9.118 K | 3.738 J/K/mol | –
9.136 K | – | 3.605 J/K/mol
9.514 K | 3.952 J/K/mol | –
9.518 K | 2.336 J/K/mol | –
9.529 K | 4.549 J/K/mol | –
9.536 K | – | 4.033 J/K/mol
9.931 K | 4.428 J/K/mol | –
9.935 K | 2.594 J/K/mol | –
9.953 K | – | 4.356 J/K/mol
10 K | 5.029 J/K/mol and 2.651 J/K/mol and 4.482 J/K/mol | 4.413 J/K/mol
10.12 K | 5.166 J/K/mol | –
10.35 K | 4.823 J/K/mol and 2.874 J/K/mol | 4.741 J/K/mol
10.59 K | 5.656 J/K/mol | –
10.77 K | 5.231 J/K/mol and 3.187 J/K/mol | –
10.78 K | – | 5.172 J/K/mol
11.06 K | 6.17 J/K/mol | –
11.24 K | 5.701 J/K/mol and 3.55 J/K/mol | –
11.25 K | – | 5.657 J/K/mol
11.54 K | 6.677 J/K/mol | –
11.74 K | 6.214 J/K/mol and 3.967 J/K/mol | –
11.75 K | – | 6.171 J/K/mol
12.06 K | 7.299 J/K/mol | –
12.26 K | 6.744 J/K/mol and 4.399 J/K/mol | –
12.27 K | – | 6.731 J/K/mol
12.59 K | 7.93 J/K/mol | –
12.81 K | 7.34 J/K/mol and 4.896 J/K/mol | 7.322 J/K/mol
13.15 K | 8.616 J/K/mol | –
13.37 K | 7.965 J/K/mol and 5.426 J/K/mol | –
13.38 K | – | 7.966 J/K/mol
13.74 K | 9.343 J/K/mol | –
13.96 K | 8.65 J/K/mol and 6.006 J/K/mol | –
13.97 K | – | 8.66 J/K/mol
14.35 K | 10.14 J/K/mol | –
14.57 K | 9.355 J/K/mol and 6.627 J/K/mol | –
14.59 K | – | 9.395 J/K/mol
14.99 K | 10.97 J/K/mol | –
15 K | 10.96 J/K/mol and 7.064 J/K/mol and 9.871 J/K/mol | 9.887 J/K/mol
15.22 K | 10.14 J/K/mol and 7.319 J/K/mol | –
15.23 K | – | 10.18 J/K/mol
15.49 K | 11.63 J/K/mol | –
15.72 K | 7.865 J/K/mol | –
15.73 K | 10.74 J/K/mol | –
15.74 K | – | 10.79 J/K/mol
16.94 K | 13.59 J/K/mol | –
17.17 K | 12.58 J/K/mol | –
17.18 K | 9.551 J/K/mol | 12.66 J/K/mol
18.52 K | 15.74 J/K/mol | –
18.77 K | 11.5 J/K/mol | –
18.78 K | 14.67 J/K/mol | –
18.79 K | – | 14.78 J/K/mol
20 K | 17.74 J/K/mol and 13.06 J/K/mol and 16.28 J/K/mol | 16.43 J/K/mol
